The record followed here is patent US12433872B2, “Treatment of Acanthamoeba or Balamuthia trophozoites and/or cysts” (GEORGIA STATE UNIVERSITY RESEARCH FOUNDATION, INC., priority 2018, dated 2025).

Format in all cases: cell-based
Assay [1] has as its system Acanthamoeba castellanii trophozoites. In words: Activity against Acanthamoeba castellanii trophozoites. The method, then: Two Acanthamoeba species (Acanthamoeba castellanii—ATCC50370 and Acanthamoeba culbertsoni—ATCC30171) were bought from the American Type Culture Collection (ATCC) and one species (Acanthamoeba healyi) was donated from the Centers for Disease Control and Prevention (CDC) for our experimentations. Trophozoites were thawed and grown in 10 mL of a nutrient rich Peptose-Glucose (PG) media. The PG media composition is 83.26 mM Glucose (15 g/L), Protease Peptone (15 g/L, yeast extract is manufactured under controlled conditions to retain its vitamin content and other nutritive values such as free amino acids, no other composition information given), 2.2 mM KH2PO4 (300 mg/L), 2.97 μM Thiamine (1 mg/L), 99.86 μM L-methionine (14.9 mg/L), 4.6 μM Vitamin B12 (83.3 μl of 0.1 mg/mL stock/L) and 68 μM Biotin (83.3 μl of 0.2 mg/mL stock/L). […] One mL/L of the salt solution was added to the media stock prior to autoclaving. All reagents were purchased from Sigma Aldrich except the Glucose which was purchased from Alfa Aesar. The cell pellet was resuspended in a final volume of 10 mL of PG media, cultured in 75 cm^2 coming tissue culture flasks and incubated at 27° C. PG was supplemented with 125 μg of penicillin/streptomycin. Sub-culturing occurred twice per week to allow the continued growth and development of the Acanthamoeba trophozoites. […]

For another assay, the system named is A549 cells. In words: Toxicity to human A549 cells.
Assay [2] relates to Acanthamoeba castellanii (ATCC50370) cysts. In words: Encystation drug susceptibility / excystation viability assay, 30 day recovery, A. castellanii cysts. The conditions noted are these: ATCC50370, 720 h, read-out: A. castellanii 30 day MCC. As to the method: (§1) The trophozoites of Acanthamoeba were harvested by mechanical detachment and collected via centrifugation at 4000 rpm at 4° C. for 5 minutes. The trophozoites were washed in 10 mL of Neff's Encystment Media (NEM). NEM composition is 20 mM Tris-HCL [pH 8.8] (2.43 g/L), 100 mM KCL (7.46 g/L), 8 mM MgSO4 (962.96 mg/L), 0.4 mM CaCL2 58.81 mg/L) and 1 mM NaHCO3 (84.01 mg/L) (Neff et al. 1964). All reagents were bought from Sigma Aldrich. Centrifugation of the trophozoites was repeated to ensure any residual growth medium was removed. The pellet was resuspended in a final volume of 15 mL of NEM, cultured in 75 cm^2 corning tissue culture flasks and incubated vertically in a thermal shaker, shaken at 100 rpm at 37° C. for 72 hours to produce fully matured cysts. NEM was supplemented with 250 μg of penicillin/streptomycin. Fresh cysts were produced each time for any experimentation.
(§2) At 72 hours the cysts were harvested using a cell scraper and collected via centrifugation at 4000 rpm at 25° C. for 10 minutes. The cells were washed twice in 10 mL of HyClone™ water, Molecular Biology Grade, and centrifugation was repeated to ensure the removal of any residual NEM. The cell suspension was washed with 0.5% sodium dodecyl sulphate (SDS) to remove any remaining trophozoites and immature cysts. The fully mature cysts were further washed twice with 10 mL of HyClone™ water and 1% NEM, centrifugation was repeated to remove any residue of SDS. The concentration of mature cysts was determined using a haemocytometer and adjusted to 1×10^4 cysts/mL in NEM.
(§3) All test compounds were prepared as 5 mg/mL stock solutions in dimethylsulfoxide (DMSO). All compounds were diluted in NEM, serially diluted in 2-fold dilutions 6 or 11 times, yielding a screening concentration range of 1.56 μg/mL to 50 μg/mL or 48 ng/mL to 50 μg/mL with a final highest screening concentration of 1% DMSO.
(§4) Based on this, a strain specific test period and also a 30 day non-specific recovery time were considered. For the 30 day recovery period, the media was changed 5 times to ensure the contents of wells dis not evaporate and have an effect within the results of the assay.
(§5) 90 μL of 1×10^4 Cysts/ml and 10 μL of experimental compounds from the screening plates were produced according to the protocols above and combined into a Corning clear 96 well treated tissue culture plate. Control wells include cysts in non-drug treated, 1% DMSO, NEM (to be used for negative growth control), NEM Blank, PG blank and cysts in non-drug treated, 1% DMSO, PG (to excyst cells and to be used for positive growth control). The total well volume for all wells was 100 μL. The drug exposed plates were screened at 27° C. for 6 or 24 hours only. At the exposure time point the plates were centrifuged at 4000 rpm at 25° C. for 10 minutes and washed twice with phosphate-buffered saline (PBS) to remove any residual experimental compound.
(§6) Once the plate(s) underwent the Encystation drug susceptibility process, all wells except the negative growth control and NEM blank wells received PG growth medium. All plates were left to recover at 27° C. for the strain specific time period of 5, 9 or 11 days depending on the species of Acanthamoeba. At each of the strain specific time points the plates were removed from incubation and microscopically analysed (qualitatively) for the excystation process for the emergence of excysted viable trophozoites or residual cysts. The presence of excysted trophozoites indicated viable amoebae (non-cystistatic or cysticidal—no effect) and the absence of excystation was considered as cystistatic/cysticidal effects.

Assay [3] deals with Acanthamoeba healyi cysts. In words: Encystation drug susceptibility / excystation viability assay, 30 day recovery, A. healyi cysts. The settings on record: 720 h, read-out: A. healyi 30 day MCC. The method, then:
as §1, §2, §3, §4, §5, §6

The test system of assay [4] is Acanthamoeba culbertsoni (ATCC30171) cysts. In words: Encystation drug susceptibility / excystation viability assay, 30 day recovery, A. culbertsoni cysts. The conditions noted are these: ATCC30171, 720 h, read-out: A. culbertsoni 30 day MCC. The method, then:
as §1, §2, §3, §4, §5, §6

In assay [5] the test system is Balamuthia mandrillaris trophozoites. In words: Activity against Balamuthia mandrillaris trophozoites. The settings on record: for IC50: Balamuthia mandrillaris. The method, then:
Balamuthia mandrillaris trophozoites were thawed and grown in 10 ml of BM-3 medium. […] After autoclaving, complete BM-3 media was produced by the addition of 10% fetal bovine serum and 125 μg of penicillin/streptomycin antibiotics. The table describes all of the compounds and the activity against Balamuthia trophozoites compared to the activity for select Acanthamoeba trophozoites shown in Table 5.

[6] abbreviates: read-out: A. cactellanii Trophozoite IC50.
Where [7] appears, read: read-out: Acanthamoeba castellanii IC50.
[8] abbreviates: Homo sapiens, A549, read-out: A549 cell IC50.
The mark [9] stands for this setting: read-out: Balamuthia mandrillaris IC50.
[10] abbreviates: trophozoites, n = 2, Table 6, read-out: Acanthamoeba castellanii IC50.
Where [11] appears, read: human A549 cells, read-out: A549 cell IC50.
[12] abbreviates: minimum cysticidal concentration, no recovery up to 30 days.
Setting [13] is: trophozoites, n = 2, read-out: Balamuthia mandrillaris IC50.

Like-named read-outs stand apart in the source and are kept apart here.

In the case of `CC(C)NC(=N)c1ccc2nc(-c3cc(F)c(Oc4ccc(-c5nc6ccc(C(=N)NC(C)C)cc6[nH]5)c(Cl)c4)c(F)c3)[nH]c2c1` [Compound B, 2-(2-Chloro-4-(2,6-difluoro-4-(6-(N-isopropylcarbamimidoyl)-1H-benzo[d]imidazol-2-yl)phenoxy)phenyl)-N-isopropyl-1H-benzo[d]imidazole-6-carboximidamide], the IC50 was determined as 540 nM in assay [1] (setting [6]), 540 nM in assay [1] (setting [7]), 17100 nM with A549 cells (setting [8]) and 400 nM in assay [5] (setting [9]). The MCC in assay [2] was 9.6 µM; in assay [3], 3.84 µM; in assay [4], 2.88 µM.

In the case of `COc1cc(Oc2c(F)cc(-c3nc4ccc(C(=N)NC(C)C)cc4[nH]3)cc2F)ccc1-c1nc2ccc(C(=N)NC(C)C)cc2[nH]1` [Compound A, 2-(3,5-Difluoro-4-(4-(6-(N-isopropylcarbamimidoyl)-1H-benzo[d]imidazol-2-yl)-3-methoxyphenoxy)phenyl)-N-isopropyl-1H-benzo[d]imidazole-6-carboximidamide], the IC50 in assay [1] (setting [6]) amounted to 1190 nM; in assay [1] (setting [7]), 1190 nM; in the assay with A549 cells (setting [8]) it was 32700 nM; in assay [5] (setting [9]), 600 nM; in assay [5] (read-out: IC50 against B. mandrillaris), 600 nM. Further, the MCC was found to be 47.4 µM in assay [2], 7.9 µM in assay [3] and 7.9 µM in assay [4]. Besides, the “times more potent than pentamide as reported in Schuster et al.” value in assay [5] (B. mandrillaris, versus pentamidine 29.38 μM) stood at 48.9.

On to `COc1cc(-c2nc3ccc(C(=N)NC(C)C)cc3[nH]2)ccc1Oc1ccc(-c2nc3ccc(C(=N)NC(C)C)cc3[nH]2)cc1F` [J, 2-(3-Fluoro-4-(4-(6-(N-isopropylcarbamimidoyl)-1H-benzo[d]imidazol-2-yl)-2-methoxyphenoxy)phenyl)-N-isopropyl-1H-benzo[d]imidazole-6-carboximidamide], for which the values for the half-inhibitory concentration (IC50) (in assay [1] (setting [10]); in the assay with A549 cells (setting [11]); in assay [5] (setting [13])) were 950 nM, 4030 nM and 80 nM, respectively. In addition, the figures for the MCC in assay [2] (setting [12]), in assay [3] (setting [12]) and in assay [4] (setting [12]) were 11.2 µM, 9.34 µM and 7.47 µM, respectively.

On to `CC(C)NC(=N)c1ccc2nc(-c3ccc(Oc4ccc(-c5nc6ccc(C(=N)NC(C)C)cc6[nH]5)c(Br)c4)c(Br)c3)[nH]c2c1` [Compound R, 2-(2-Bromo-4-(2-bromo-4-(6-(N-isopropylcarbamimidoyl)-1H-benzo[d]imidazol-2-yl)phenoxy)phenyl)-N-isopropyl-1H-benzo[d]imidazole-6-carboximidamide], for which the figures for the 50% inhibitory concentration (IC50) (in assay [1] (setting [10]); with A549 cells (setting [11]); in assay [5] (setting [13])) were 550 nM, 4180 nM and 200 nM, respectively. Moreover, the figures for the MCC in assay [2] (setting [12]), in assay [3] (setting [12]) and in assay [4] (setting [12]) were 2.66 µM, 3.56 µM and 2.66 µM, respectively.

For the molecule `CC(C)NC(=N)c1ccc2nc(-c3ccc(Oc4ccc(-c5nc6ccc(C(=N)NC(C)C)cc6[nH]5)cc4Cl)c(Cl)c3)[nH]c2c1` [P, 2,2′-(Oxybis(3-chloro-4,1-phenylene))bis(N-isopropyl-1H-benzo[d]imidazole-6-carboximidamide)], the figures for the IC50 (in assay [1] (setting [10]); in the assay on A549 cells (setting [11]); in assay [5] (setting [13])) were 810 nM, 4910 nM and 180 nM, respectively. Further, the MCC was 18 µM in assay [2] (setting [12]), 9.99 µM in assay [3] (setting [12]) and 20 µM in assay [4] (setting [12]).

On to `COc1cc(Oc2ccc(-c3nc4ccc(C(=N)NC(C)C)cc4[nH]3)c(Cl)c2)ccc1-c1nc2ccc(C(=N)NC(C)C)cc2[nH]1` [Compound S], for which the concentration for half-maximal inhibition (IC50) in assay [1] (setting [10]) came out at 2790 nM; with A549 cells (setting [11]), 2950 nM; in assay [5] (setting [13]), 60 nM. The MCC came out at 2.81 µM in assay [2] (setting [12]), 1.87 µM in assay [3] (setting [12]) and 0.93 µM in assay [4] (setting [12]).

On to `CC(C)NC(=N)c1ccc2nc(-c3ccc(Oc4ccc(-c5nc6ccc(C(=N)NC(C)C)cc6[nH]5)c(Cl)c4)cc3Cl)[nH]c2c1` [L, 2-2′-(Oxybis(2-chloro-4,1-phenylene))bis(N-isopropyl-3H-benzo[d]imidazole-6-carboximidamide)], for which the IC50 was found to be 390 nM in assay [1] (setting [10]), 4170 nM in the assay on A549 cells (setting [11]) and 80 nM in assay [5] (setting [13]). The MCC in assay [2] (setting [12]), in assay [3] (setting [12]) and in assay [4] (setting [12]) was 2.88 µM each time.

For `CC(C)NC(=N)c1ccc2nc(-c3ccc(Oc4ccc(-c5nc6ccc(C(=N)NC(C)C)cc6[nH]5)cc4Br)cc3)[nH]c2c1` [O, 2-(3-Bromo-4-(4-(6-(N-isopropylcarbamimidoyl)-1H-benzo[d]imidazol-2-yl)phenoxy)phenyl)-N-isopropyl-1H-benzo[d]imidazole-6-carboximidamide], the values for the IC50 (in assay [1] (setting [10]); in the assay with A549 cells (setting [11]); in assay [5] (setting [13])) were 670 nM, 3710 nM and 130 nM, respectively. The MCC in assay [2] (setting [12]), in assay [3] (setting [12]) and in assay [4] (setting [12]) was 11.4 µM in each case.

Consider `CC(C)NC(=N)c1ccc2nc(-c3cc(F)c(Oc4ccc(-c5nc6ccc(C(=N)NC(C)C)cc6[nH]5)c(Br)c4)c(F)c3)[nH]c2c1` [Compound F, 2-(2-Bromo-4-(2,6-difluoro-4-(6-(N-isopropylcarbamimidoyl)-1H-benzo[d]imidazol-2-yl)phenoxy)phenyl)-N-isopropyl-1H-benzo[d]imidazole-6-carboximidamide], for which the 50% inhibitory concentration (IC50) in assay [1] (setting [6]) was determined as 590 nM; in assay [1] (setting [7]) it was 590 nM; in the assay with A549 cells (setting [8]), 13700 nM; in assay [5] (setting [9]), 590 nM. Further, the MCC was 5.29 µM in assay [2], 3.52 µM in assay [3] and 5.29 µM in assay [4].
